Data set [1] concerns common marmoset isolated bladder smooth muscle. As to the kind of experiment: Test Case 7: common marmoset isolated bladder smooth muscle relaxation test. As to conditions: KCl 40 mmol/L contracted marmoset bladder, papaverine 10^−4 mol/L relaxation = 100%. How it is done: Common Marmoset Isolated Bladder Smooth Muscle Relaxation Test
After sacrificing common marmosets (Japan CLEA) by exsanguination, they are laparotomized and the urinary bladder is removed. […] The specimens are loaded with one gram of resting tension and stabilized for 30 or more minutes. After the resting tension of the specimen has stabilized, a final concentration of 40 mmol/L of KCl is added repeatedly, and it is confirmed that the contraction in response to KCl has basically become constant. […] Taking that relaxation response as 100%, the relaxation rate (%) at test compound concentrations of […] is calculated.

The test system of another data set is Male C57BL/6 Cr mice. As to the kind of experiment: Test Case 10: mouse piloerection test. The conditions noted are these: 10 mg/kg i.v. In kind it is in vivo.

As to `Cc1n[nH]c2cc(OCCNC[C@H](O)c3cccc(NS(=O)(=O)C4CCC4)c3)ccc12` [ex3, (R)—N-(3-(1-hydroxy-2-(2-(3-methylindazol-6-yloxy)ethylamino)ethyl)phenyl)cyclobutanesulfonamide], the “relaxant activity (%) 10^−4M” value in data set [1] was found to be 63.2%. Besides, the “relaxant activity (%) 10^−5M” value in data set [1] was 36.6%. The “number of experimental animals matching Score 0 (no piloerection)” value (shortened to “number … (no piloerection)”) worked out at 4 with Male C57BL/6 Cr mice (n=4, observation time 5 min); 3 with Male C57BL/6 Cr mice (n=4, observation time 15 min); 3 in the data set with Male C57BL/6 Cr mice (n=4, observation time 30 min); 4 with Male C57BL/6 Cr mice (n=4, observation time 60 min). In addition, the “number of experimental animals matching Score 0.5” value in the data set with Male C57BL/6 Cr mice (n=4, observation time 15 min) came to 1; in the data set on Male C57BL/6 Cr mice (n=4, observation time 30 min) it was 1.

With `O=S(=O)(Nc1cccc([C@@H](O)CNCCOc2ccc3c(OC(F)F)n[nH]c3c2)c1)C1CC1` [ex4, (R)—N-(3-(2-(2-(3-(difluoromethoxy)-indazol-6-yloxy)ethylamino)-1-hydroxyethyl)phenyl)cyclopropanesulfonamide], the “relaxant activity (%) 10^−4M” value in data set [1] came to 53.7%. Also, the “relaxant activity (%) 10^−5M” value in data set [1] was 30.1%. Besides, the “number … (no piloerection)” value with Male C57BL/6 Cr mice (n=4, observation time 5 min) was determined as 4; in the data set with Male C57BL/6 Cr mice (n=4, observation time 15 min) it was 4; in the data set on Male C57BL/6 Cr mice (n=4, observation time 30 min), 3; in the data set with Male C57BL/6 Cr mice (n=4, observation time 60 min) it was 3. In addition, the “number of experimental animals matching Score 0.5” value is listed as 1 in the data set with Male C57BL/6 Cr mice (n=4, observation time 30 min) and 1 in the data set with Male C57BL/6 Cr mice (n=4, observation time 60 min).

On to `Cc1n[nH]c2cc(OCCNC[C@H](O)c3cccc(NS(=O)(=O)c4ccccc4F)c3)ccc12` [ex235, (R)-2-fluoro-N-(3-(1-hydroxy-2-(2-(3-methylindazol-6-yloxy)ethylamino)ethyl)phenyl)benzenesulfonamide], for which, in data set [1], the “relaxant activity (%) 10^−4M” value is reported as 55.3%. Moreover, the “relaxant activity (%) 10^−5M” value in data set [1] came to 24.3%. Besides, the “number … (no piloerection)” value with Male C57BL/6 Cr mice (n=4, observation time 5 min) came out at 4; in the data set on Male C57BL/6 Cr mice (n=4, observation time 15 min), 4; in the data set with Male C57BL/6 Cr mice (n=4, observation time 30 min), 4; in the data set on Male C57BL/6 Cr mice (n=4, observation time 60 min) it was 4.
